Measurements: PubChem BioAssay (NCI)
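Following 48 hours of exposure in 96-well plates, responses at five concentrations were used to interpolate endpoints linearly. TGI marks complete inhibition of growth.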

What was measured:
Test in all cases: inhibition of tumour cell growth, NCI panel, 48 h
786-0 renal = tested on: 786-0 renal
A549 NSCLC = tested on: A549 NSCLC
CAKI-1 renal = tested on: CAKI-1 renal
CCRF-CEM leukemia = tested on: CCRF-CEM leukemia
COLO 205 colon = tested on: COLO 205 colon
DU-145 prostate = tested on: DU-145 prostate
EKVX NSCLC = tested on: EKVX NSCLC
HCC-2998 colon = tested on: HCC-2998 colon
HCT-15 colon = tested on: HCT-15 colon
IGROV1 ovarian = tested on: IGROV1 ovarian
K-562 leukemia = tested on: K-562 leukemia
MCF7 breast = tested on: MCF7 breast
MDA-MB-231 breast = tested on: MDA-MB-231 breast
NCI-H23 lung = tested on: NCI-H23 lung
OVCAR-3 ovarian = tested on: OVCAR-3 ovarian
RPMI-8226 leukemia = tested on: RPMI-8226 leukemia
SN12C renal = tested on: SN12C renal
SR leukemia = tested on: SR leukemia
U251 CNS = tested on: U251 CNS
LOX IMVI melanoma = tested on: LOX IMVI melanoma

SMILES | TGI (786-0 renal) [µM] | TGI (A549 NSCLC) [µM] | TGI (CAKI-1 renal) [µM] | TGI (CCRF-CEM leukemia) [µM] | TGI (COLO 205 colon) [µM] | TGI (DU-145 prostate) [µM] | TGI (EKVX NSCLC) [µM] | TGI (HCC-2998 colon) [µM] | TGI (HCT-15 colon) [µM] | TGI (IGROV1 ovarian) [µM] | TGI (K-562 leukemia) [µM] | TGI (MCF7 breast) [µM] | TGI (MDA-MB-231 breast) [µM] | TGI (NCI-H23 lung) [µM] | TGI (OVCAR-3 ovarian) [µM] | TGI (RPMI-8226 leukemia) [µM] | TGI (SN12C renal) [µM] | TGI (SR leukemia) [µM] | TGI (U251 CNS) [µM] | TGI (LOX IMVI melanoma) [µM]
Cc1c(S(=O)(=O)c2ccccc2)c(N)n(CCN(C)C)c1C | > 100 | > 100 | > 100 | > 100 | > 100 | > 100 | > 100 | > 100 | > 100 | > 100 | > 100 | > 100 | > 100 | > 100 | > 100 | > 100 | > 100 | > 100 | > 100 | 
O=C(CC(C(=O)c1ccsc1)c1ccc2c(c1)OCO2)c1ccccc1 (stereo unspecified) | > 100 | 50.7 | > 100 | > 100 | > 100 | > 100 | > 100 | > 100 | > 100 | > 100 | > 100 | > 100 |  | 63.1 | > 100 | > 100 | > 100 | > 100 | > 100 | > 100
CCOC(=O)Cn1c(=O)c2nc(SC)sc2n(-c2ccccc2)c1=O | > 100 | > 100 |  | > 100 | > 100 |  | > 100 | > 100 | > 100 | > 100 | > 100 | > 100 | > 100 | > 100 |  | > 100 | > 100 | > 100 | > 100 | 
[O-][n+]1ccccc1Sc1nc(Sc2cccc[n+]2[O-])nc(Sc2cccc[n+]2[O-])n1 | 2.53 | 13.9 | 2.11 | > 100 | 2.3 | 10.2 | 5.81 | 2.89 | 2.93 | 3.03 |  | 2.47 | 2.73 | 3.87 | 6.49 |  | 3.48 | 2.97 | 3.3 | 4
C=CCSc1nnc2cc(CN3CCCC3)c(-c3ccc(Cl)cc3)nn12 | 33.7 | > 100 | 77.5 | > 100 | 34.5 | 43.7 | 43.8 |  | 45.1 | 44.3 | > 100 | 33.7 | 35.6 | 59.4 | 36 | > 100 | 32.1 | > 100 | 31.2 | 48.1
CSC(=S)N/N=C(\C)c1ccc(S(=O)(=O)N(C)c2ccccc2)cc1 | > 100 | > 100 | > 100 |  | > 100 | > 100 | > 100 | > 100 | > 100 | > 100 | > 100 | > 100 | > 100 | > 100 | > 100 | > 100 | > 100 | > 100 | > 100 | > 100
CCOC(=O)c1nc2c(nc1C(=O)OCC)C(=O)c1ccccc1C2=O | 6.33 | 9.47 | 3.26 | > 100 | 4.36 | 2.48 | 3.5 | 2.97 | > 34.4 | 23.8 | 4.46 | 1.17 | 8.41 |  | 2.81 | 6.87 | 0.4 | 0.68 | 2.74 | 
CCN(CC)CCn1c(=O)c2cccnc2n2c3c(=O)n(C)c(=O)n(C)c3nc12 | > 100 | > 100 | > 100 | > 100 | > 100 | > 100 | > 100 | > 100 | 27.3 | > 100 | > 100 | > 100 | > 100 | > 100 | > 100 | > 100 | > 100 | > 100 | > 100 | 
CC(=N/N=C/c1ccccn1)/C(C)=N/N=C(C)/C(C)=N/N=C(C)/C(C)=N/N=C(C)/C(C)=N\N=C\c1ccccn1 | > 100 | > 100 | > 100 |  | > 100 | > 100 | > 100 | > 100 | > 100 | > 100 | > 100 | > 100 | > 100 | > 100 | > 100 | > 100 | > 100 | > 100 | > 100 | > 100
COc1ccc2c(C)cc(=O)oc2c1OC | > 100 | > 100 |  | > 100 | > 100 | > 100 | > 100 |  | > 100 | > 100 | > 100 | > 100 | > 100 | > 100 | > 100 | > 100 | > 100 | > 100 | > 100 | > 100
CCOC(=O)c1ccc(NCC#CCN2CCOCC2)cc1 | > 100 | > 100 |  | > 100 | > 100 | > 100 | > 100 |  | > 100 | > 100 | > 100 | > 100 | > 100 | > 100 | > 100 | > 100 | > 100 | > 100 | > 100 | > 100
Cc1ccc(-c2[nH]c(=O)n(C3OC(CO)C(O)C(O)C3O)c(=O)c2C#N)cc1 (stereo unspecified) | > 100 | > 100 | > 100 | > 100 | > 100 | > 100 | > 100 | > 100 | > 100 | > 100 | > 100 | > 100 | > 100 | > 100 | > 100 | > 100 | > 100 | > 100 | > 100 | 
O=C(O)/C=C(/C(=O)O)C12CCN3CC4=CCOC5CC(=O)NC1C5C4CC32 (stereo unspecified) | > 100 | > 100 | > 100 | > 100 | > 100 | > 100 | > 100 |  | > 100 | > 100 | > 100 | > 100 | > 100 | > 100 | > 100 | > 100 | > 100 | > 100 | > 100 | > 100
CSC(=S)N(C)C | > 100 | > 100 | > 100 | > 100 | > 100 | > 100 | > 100 |  | > 100 | > 100 | > 100 | > 100 | > 100 | > 100 | > 100 | > 100 | > 100 | > 100 | > 100 | > 100
COc1ccc(NC(=O)CC(=O)N2N=C(N3c4ccccc4Sc4ccccc43)CC2c2ccccc2)cc1 (stereo unspecified) | > 100 | > 100 | > 100 | > 100 | > 100 | > 100 | > 100 | > 100 | > 100 | > 100 | > 100 | > 100 | > 100 | > 100 | > 100 | > 100 | > 100 | > 100 | > 100 | 
CN(C)c1ccc(S(=O)Nc2ccccc2)cc1 (stereo unspecified) | > 100 | > 100 |  | > 100 | 63.1 | > 100 | > 100 | > 100 | > 100 | > 100 | > 100 | > 100 | > 100 | > 100 | > 100 | > 100 | > 100 | > 100 | 62.9 | > 100
O=c1[nH]c(Nc2nc3ccccc3[nH]2)nc(O)c1-c1ccccc1 | > 100 | > 100 | > 100 | > 100 | > 100 | > 100 |  | > 100 | > 100 | > 100 | > 100 | > 100 | > 100 | > 100 | > 100 |  | > 100 | > 100 | > 100 | > 100
Cc1ccc(C(=C2Sc3ccccc3S2)C(=C2Sc3ccccc3S2)c2ccc(C)s2)s1 | > 100 | > 100 | > 100 | > 100 | > 100 | > 100 | > 100 | > 100 | > 100 | > 100 | > 100 | > 100 | > 100 | > 100 | > 100 | > 100 | > 100 | 85.7 | > 100 | 
NS(=O)(=O)c1cc(Cl)c(NC(=S)NC(=O)Nc2ccc(Cl)c(Cl)c2)c(Cl)c1 | > 100 | > 100 | > 100 | > 100 | 33.6 | > 100 | > 100 | > 100 | > 100 | > 100 | > 100 | 53.8 | > 100 | > 100 | > 100 |  | > 100 | > 100 | > 100 | > 100
Cc1nc(N)c(N2CCN([N+](=O)[O-])CC2)c(=O)[nH]1 | > 100 | > 100 |  | > 100 | > 100 | > 100 | > 100 | > 100 | > 100 |  | > 100 | > 100 | > 100 | > 100 | > 100 | > 100 | > 100 | > 100 | > 100 | > 100
